Experiments:
Hep 3B2 [1] = assay: Cytotoxic activity against human Hep3B cells assessed as growth inhibition after 48 hrs by MTT assay; assay type: functional, cell-based
HepG2 [2] = assay: Cytotoxic activity against human HepG2 cells assessed as growth inhibition after 48 hrs by MTT assay; assay type: functional, cell-based
HepG2 [3] = assay: Cytotoxic activity against human HepG2 cells assessed as growth inhibition at 6.25 uM after 48 hrs by MTT assay; assay type: functional; details: HepG2, 48 h, read-out: GI
HepG2 [4] = assay: Cytotoxic activity against human HepG2 cells assessed as growth inhibition at 100 uM after 48 hrs by MTT assay; assay type: functional; details: HepG2, 48 h, read-out: GI
Hep 3B2 [5] = assay: Cytotoxic activity against human Hep3B cells assessed as growth inhibition at 6.25 uM after 48 hrs by MTT assay; assay type: functional; details: read-out: GI
Hep 3B2 [6] = assay: Cytotoxic activity against human Hep3B cells assessed as growth inhibition at 25 uM after 48 hrs by MTT assay; assay type: functional; details: read-out: GI
HepG2 [7] = assay: Cytotoxic activity against human HepG2 cells assessed as growth inhibition at 50 uM after 48 hrs by MTT assay; assay type: functional; details: HepG2, 48 h, read-out: GI
HepG2 [8] = assay: Cytotoxic activity against human HepG2 cells assessed as growth inhibition at 25 uM after 48 hrs by MTT assay; assay type: functional; details: HepG2, 48 h, read-out: GI
Hep 3B2 [9] = assay: Cytotoxic activity against human Hep3B cells assessed as growth inhibition at 50 uM after 48 hrs by MTT assay; assay type: functional; details: read-out: GI
Hep 3B2 [10] = assay: Cytotoxic activity against human Hep3B cells assessed as growth inhibition at 12.5 uM after 48 hrs by MTT assay; assay type: functional; details: read-out: GI
Hep 3B2 [11] = assay: Cytotoxic activity against human Hep3B cells assessed as growth inhibition at 100 uM after 48 hrs by MTT assay; assay type: functional; details: read-out: GI
HepG2 [12] = assay: Cytotoxic activity against human HepG2 cells assessed as growth inhibition at 12.5 uM after 48 hrs by MTT assay; assay type: functional; details: HepG2, 48 h, read-out: GI

Compound: COC(=O)/C=C/c1ccc(OCCC(C)CO)cc1 (configuration not stated)
- growth inhibition (GI) (Hep 3B2 [1]): 14.7%
- growth inhibition (GI) (HepG2 [2]): 39.48%

Compound: CC(CO)CCOc1ccc(/C=C/CO)cc1 (configuration not stated)
- growth inhibition (GI) (Hep 3B2 [1]): 7.75%
- growth inhibition (GI) (HepG2 [2]): 9.26%

Compound: CC(/C=C\Oc1ccc(/C=C/CO)cc1)CO (configuration not stated)
- growth inhibition (GI) (Hep 3B2 [1]): -15.72%
- growth inhibition (GI) (HepG2 [2]): 7.81%

Compound: O=c1[nH]cc(F)c(=O)[nH]1 [FLUOROURACIL]
- inhibition of growth at 6.25 µM (HepG2 [3]): 19.3%
- growth inhibition (GI) (Hep 3B2 [1]): 56.74%
- IC50 (Hep 3B2 [1]; Homo sapiens, Hep3B, 48 h): 10.5 to 11.9 µM
- growth inhibition (GI) (HepG2 [2]): 51.78%
- IC50 (HepG2 [2]; Homo sapiens, HepG2, 48 h): 32.6 to 49.7 µM
- inhibition of growth at 100 µM (HepG2 [4]): 51.2%
- inhibition of growth at 6.25 µM (Hep 3B2 [5]): 48.9%
- inhibition of growth at 25 µM (Hep 3B2 [6]): 51.7%
- inhibition of growth at 50 µM (HepG2 [7]): 47.3%
- inhibition of growth at 25 µM (HepG2 [8]): 39.2%
- inhibition of growth at 50 µM (Hep 3B2 [9]): 54.5%
- inhibition of growth at 12.5 µM (Hep 3B2 [10]): 50.6%
- inhibition of growth at 100 µM (Hep 3B2 [11]): 57%
- inhibition of growth at 12.5 µM (HepG2 [12]): 32.9%

Compound: CC(/C=C\Oc1ccc(CCCO)cc1)CO (single isomer, unassigned; (+))
- growth inhibition (GI) (Hep 3B2 [1]): 69.59%
- growth inhibition (GI) (HepG2 [2]): 13.76%

Reference: ChEMBL document CHEMBL4000183, “Phenylpropanoids from Juglans mandshurica exhibit cytotoxicities on liver cancer cell lines through apoptosis induction” (Bioorg Med Chem Lett, 2017)
